According to patent EP0120359A1, “Tetrahydrothiophenone derivative active in respiratory system affections” (YASON S.r.l, priority 1983, dated 1984):
Read-outs that look alike come from different tables or passages of the source.

What was measured:
[1] = system: rabbit; assay: Antitussive activity, citric acid induced cough; assay type: in vivo
Text: The antitussive activity of YS-869 was evalued by the citric acid test in the rabbit (Boura et al., Prog. Brit. Pharmac. Soc. Communications, April 1970), in comparison with codeine.
Such method consists in counting the coughs stro kes caused in the animal by the nebulization of a citric acid solution.

[2] = system: Sprague-Dawley rats; assay: Bronchosecretogogue activity, Mawatari test; assay type: in vivo; conditions: rat
Text: The bronchosecretogogue activity of YS-869 was evalued by the test of Mawatari in Sprague-Dawley rats (Mawatari H. "Experimental Studies on the expectorant action of several drugs" - Kagoshima Daiga ken Igaken Zasshi. 27, 561, 1976), in comparison with known drugs.
This method consists in determinating the amount of […] eliminated with the fluid in the respiratory tract.

[3] = system: rat paw; assay: Antiinflammatory activity, carrageenin oedema in rat paw; assay type: in vivo; conditions: for Paw volume 2 h / Paw volume 4 h / Paw volume 6 h / Paw volume 8 h / Paw volume 24 h / Paw volume Basal: mean ± S.E.; for AREA % M±E.S.: area of the paw volume curve; for AREA Inhibition versus control: oedema inhibiting activity
Method: The antiinflammatory activity of YS-869 in comparison with acetylsalicylic acid was evaluated by the test of oedema induced by carrageening injection in rat paw (Winter, Rissly, Ness.; Proc. Soc. Exp. Biol. Med., Ill, 544-47 - 1962).

[4] = Solubility in organic solvents; conditions: common organic solvents
[5] = system: rats; assay type: in vivo; conditions: 200 mg/kg p.o.
Method: The gastro-injuring activity was determined by administering rats with equimolecular dosages of YS-869 and acetylsalicylic acid (252 mg/kg and 200 mg/kg respectively).

## COc1ccc2c3c1O[C@H]1[C@@H](O)C=C[C@H]4[C@@H](C2)N(C)CC[C@@]341 [CODEINE, codeine]
[1]; 25 mg/kg i.p.
  % inhibition versus control: 70.4%

## Nc1c(Br)cc(Br)cc1CN[C@H]1CC[C@H](O)CC1 [AMBROXOL, Ambroxol]
[2]; 50 mg/kg i.p.
  Fl Na: 0.36 ± 0.037 µg/mL
  Fl Na % increase versus contr.: 28.6%

## O=C(NC1CCSC1=O)c1cccs1 (stereo not drawn) [YS-869, N-(2-thenoyl)-N-(2-keto-2,3,4,5-tetrahydro-thiophene-3-yl)amine]
[1]; 100 mg/kg i.p.
  % inhibition versus control: 21.5%
[3]; 252 mg/kg p.o.
  Paw volume 2 h: 48.2 ±1.2 ml/10
  Paw volume 4 h: 54.1 ±2.3 ml/10
  Paw volume 6 h: 52.1 ±2.9 ml/10
  Paw volume 8 h: 51.4 ±2.5 ml/10
  Paw volume 24 h: 41 ±1.4 ml/10
  AREA % M±E.S.: 165.21 ±13.1%
  Paw volume Basal: 36.8 ±1.0 ml/10
  AREA Inhibition versus control: 20.26%
[2]; 500 mg/kg i.p.
  Fl Na: 0.42 ± 0.0450 µg/mL
[2]; 500 mg/kg i.p., 500 mg/kg
  Fl Na % increase versus contr.: 50%
[4]
  solubility: soluble in common organic solvents

## N[C@@H](CSCC(=O)O)C(=O)O [S-CARBOXY-METHYL-CY-STEINE, S-carboxymethyl-cysteine]
[2]; 500 mg/kg i.p.
  Fl Na: 0.41 ± 0.036 µg/mL
  Fl Na % increase versus contr.: 46.4%

## CC(=O)Oc1ccccc1C(=O)O [Acetyl-salicy-lic acid, acetylsalicylic acid]
[3]; 200 mg/kg p.o.
  Paw volume 2 h: 43.5 ±1.5 ml/10
  Paw volume 4 h: 49.3 ±2.0 ml/10
  Paw volume 6 h: 51.4 ±1.7 ml/10
  Paw volume 8 h: 51.5 ±2.0 ml/10
  Paw volume 24 h: 42.8 ±1.7 ml/10
  AREA % M±E.S.: 151.38 ±13.1%
  Paw volume Basal: 36.1 ±1.1 ml/10
  AREA Inhibition versus control: 26.94%
[5]
  ULCERS (gastric ulcers average size): 27.7±6.37 mm
[5]; listed as acetylsalicylic acid
  ULCERS (gastric ulcers average size): 27.7 mm
